EC50, IC50 and AC50 data for 5 compounds are collected here from ChEMBL document CHEMBL1201862, “PubChem BioAssay data set” (2004).

In assay [1] the target is Beta-2 adrenergic receptor (Homo sapiens, UniProt P07550). The assay can be described thus: beta2AR agonists driving receptor internalization, dose response, cell-based, FAP fluorogen, flow cytometry, cherry pick 1 (AID 588763). The format is functional. In general terms: In flow cytometry, cells or beads pass a laser one at a time.
Assay [2] in a line: inhibitors of firefly luciferase expression or activity, dose response, H4 neuroglioma cells, luminescence (AID 1990). It counts as functional, cell-based.
A short description of assay [3]: inhibitors of SNCA 5'UTR-driven reporter translation, confirmation, H4 neuroglioma cells, luminescence (AID 1988). The format is functional, cell-based.
Assay [4] is described as follows: Luminescence Cell-Based Dose Response HTS to Identify Inhibitors of 5'UTR Stem-Loop Driven Prion Protein mRNA Translation in H4 Neuroglioblastoma Cells. [Related pubchem assays: 1827 (Project Summary), 1813 (Primary HTS)]. It counts as functional.
The test system of assay [5] is BJ. The experiment in a line: cytotoxicity toward BJ-TERT-LT-ST fibroblasts, dose response, cell-based, RAS-independent, luminescence (AID 1935).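 Further: BJ fibroblasts immortalized with TERT plus LT and ST oncogenes.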 It counts as functional. The note with it: Homo sapiens.
Assay [6] deals with BJ. The assay can be described thus: cells. It counts as functional, cell-based. Conditions: Homo sapiens.
A further assay deals with T1, Cysteine protease ATG4B (Homo sapiens, UniProt Q9Y4P1).
T1 sequence (Q9Y4P1 whole entry): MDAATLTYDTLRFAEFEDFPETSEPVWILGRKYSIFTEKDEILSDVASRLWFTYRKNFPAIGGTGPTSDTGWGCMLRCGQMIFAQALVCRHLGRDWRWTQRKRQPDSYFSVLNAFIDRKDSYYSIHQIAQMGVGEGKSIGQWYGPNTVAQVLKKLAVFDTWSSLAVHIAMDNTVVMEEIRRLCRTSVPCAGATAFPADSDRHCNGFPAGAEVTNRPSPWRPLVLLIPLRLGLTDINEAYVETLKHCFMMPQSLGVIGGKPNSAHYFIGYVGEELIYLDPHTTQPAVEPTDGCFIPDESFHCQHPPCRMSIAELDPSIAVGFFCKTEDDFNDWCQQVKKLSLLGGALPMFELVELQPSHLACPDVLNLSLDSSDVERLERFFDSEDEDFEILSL
The experiment in a line: ATG4B protease inhibitors, dose response, biochemical, fluorescence, set 2 (AID 588584). The format is functional.

Another assay in a line: cells. It counts as functional, cell-based.
Assay [7] relates to BJ. The experiment in a line: cytotoxicity toward Ras-transformed BJeLR fibroblasts, dose response, cell-based, alamar blue fluorescence, cherrypicked samples (AID 2631).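 Further: confirmatory dose-response assay in RAS-dependent BJ fibroblasts engineered with TERT, LT and ST, with cytotoxicity read by fluorescence.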 It counts as functional. Conditions: Homo sapiens. A general note: Resazurin is reduced to fluorescent resorufin, in cell work by metabolically active cells.
Assay [8] can be described thus: inhibitors of SNCA 5'UTR-driven translation, confirmation, luminescence, H4 neuroglioblastoma cells, dose confirmation (AID 2454).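 Further: H4 neuroglioblastoma cells carrying an alpha-synuclein 5'UTR luciferase reporter; potency for inhibition of the luciferase signal.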 The format is functional, cell-based.
Assay [9] is described as follows: cytotoxicity toward DRD oncogenic fibroblasts, dose response, cell-based, non-viral oncogenic, luminescence (AID 1934). It counts as functional. The note with it: Homo sapiens.
The target of the next assay is Phospholipase A2 (Homo sapiens, UniProt P04054). The assay can be described thus: PLA2 enzyme inhibitors, dose response, counter-screen for ATG4B inhibitor project, biochemical, set 2 (AID 588586). The format is functional.
Sequence of Phospholipase A2 (P04054 whole entry, the tested form may be a part): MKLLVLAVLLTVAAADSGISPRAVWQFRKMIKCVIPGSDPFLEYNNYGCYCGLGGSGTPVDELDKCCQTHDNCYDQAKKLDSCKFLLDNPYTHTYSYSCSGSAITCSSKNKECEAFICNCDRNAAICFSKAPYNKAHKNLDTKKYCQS
Assay [10] in a line: luciferase reporter signal reduction – luminescence, H4-C neuroglioblastoma cells, dose response (AID 2458).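 Further: H4 neuroglioblastoma cells stably carrying a luciferase reporter gene fusion.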 It counts as functional, cell-based. On the technique in general: Reporter assays use an easily measured gene product as a stand-in for the process of interest.
The next assay deals with T2, Hexokinase-1 (Homo sapiens, UniProt P19367).
T2 sequence (P19367 whole entry): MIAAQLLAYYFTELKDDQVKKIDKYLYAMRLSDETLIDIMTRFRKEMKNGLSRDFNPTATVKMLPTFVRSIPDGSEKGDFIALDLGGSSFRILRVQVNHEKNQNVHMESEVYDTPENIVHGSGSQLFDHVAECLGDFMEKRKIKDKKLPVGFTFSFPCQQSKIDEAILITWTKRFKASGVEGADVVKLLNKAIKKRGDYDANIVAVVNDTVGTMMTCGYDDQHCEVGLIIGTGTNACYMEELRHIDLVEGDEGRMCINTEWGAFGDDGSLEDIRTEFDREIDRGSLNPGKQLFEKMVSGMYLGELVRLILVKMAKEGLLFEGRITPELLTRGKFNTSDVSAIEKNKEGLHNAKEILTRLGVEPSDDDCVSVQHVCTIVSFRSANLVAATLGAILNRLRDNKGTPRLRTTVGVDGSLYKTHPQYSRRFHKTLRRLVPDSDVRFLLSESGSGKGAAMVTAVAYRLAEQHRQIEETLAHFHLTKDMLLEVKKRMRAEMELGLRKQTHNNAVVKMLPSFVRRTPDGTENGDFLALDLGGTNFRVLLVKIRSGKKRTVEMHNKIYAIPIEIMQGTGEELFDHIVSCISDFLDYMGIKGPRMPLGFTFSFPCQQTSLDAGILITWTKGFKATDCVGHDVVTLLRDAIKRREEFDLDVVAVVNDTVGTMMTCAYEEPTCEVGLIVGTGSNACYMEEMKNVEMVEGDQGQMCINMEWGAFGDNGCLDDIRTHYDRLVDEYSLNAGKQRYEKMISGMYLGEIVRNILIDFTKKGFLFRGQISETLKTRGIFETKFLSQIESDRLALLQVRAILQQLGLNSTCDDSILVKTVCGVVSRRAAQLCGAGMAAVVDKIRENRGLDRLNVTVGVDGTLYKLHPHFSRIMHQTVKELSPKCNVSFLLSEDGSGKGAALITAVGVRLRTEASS
The assay can be described thus: SAR analysis of small molecule inhibitors of hexokinase domain containing I (HKDC1) in the hexokinase 1 selectivity assay. [Related pubchem assays (depositor defined):AID493160, AID493190]. The format is functional.

The target of assay [11] is FAD-linked sulfhydryl oxidase ALR (Homo sapiens, UniProt P55789). The experiment in a line: inhibitors of human ALR sulfhydryl oxidase, dose response, biochemical, H2O2 detection, luminescence, cherry-pick (AID 493248).
Sequence of FAD-linked sulfhydryl oxidase ALR (P55789 whole entry): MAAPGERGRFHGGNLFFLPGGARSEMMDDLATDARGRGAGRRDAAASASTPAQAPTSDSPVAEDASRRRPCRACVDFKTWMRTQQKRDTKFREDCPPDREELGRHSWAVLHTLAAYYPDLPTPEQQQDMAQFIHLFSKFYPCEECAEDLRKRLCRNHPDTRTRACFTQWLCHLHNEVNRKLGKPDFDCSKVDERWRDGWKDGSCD
The target in a further assay is T3, Hexokinase HKDC1 (Homo sapiens, UniProt Q2TB90).
T3 sequence (Q2TB90 whole entry): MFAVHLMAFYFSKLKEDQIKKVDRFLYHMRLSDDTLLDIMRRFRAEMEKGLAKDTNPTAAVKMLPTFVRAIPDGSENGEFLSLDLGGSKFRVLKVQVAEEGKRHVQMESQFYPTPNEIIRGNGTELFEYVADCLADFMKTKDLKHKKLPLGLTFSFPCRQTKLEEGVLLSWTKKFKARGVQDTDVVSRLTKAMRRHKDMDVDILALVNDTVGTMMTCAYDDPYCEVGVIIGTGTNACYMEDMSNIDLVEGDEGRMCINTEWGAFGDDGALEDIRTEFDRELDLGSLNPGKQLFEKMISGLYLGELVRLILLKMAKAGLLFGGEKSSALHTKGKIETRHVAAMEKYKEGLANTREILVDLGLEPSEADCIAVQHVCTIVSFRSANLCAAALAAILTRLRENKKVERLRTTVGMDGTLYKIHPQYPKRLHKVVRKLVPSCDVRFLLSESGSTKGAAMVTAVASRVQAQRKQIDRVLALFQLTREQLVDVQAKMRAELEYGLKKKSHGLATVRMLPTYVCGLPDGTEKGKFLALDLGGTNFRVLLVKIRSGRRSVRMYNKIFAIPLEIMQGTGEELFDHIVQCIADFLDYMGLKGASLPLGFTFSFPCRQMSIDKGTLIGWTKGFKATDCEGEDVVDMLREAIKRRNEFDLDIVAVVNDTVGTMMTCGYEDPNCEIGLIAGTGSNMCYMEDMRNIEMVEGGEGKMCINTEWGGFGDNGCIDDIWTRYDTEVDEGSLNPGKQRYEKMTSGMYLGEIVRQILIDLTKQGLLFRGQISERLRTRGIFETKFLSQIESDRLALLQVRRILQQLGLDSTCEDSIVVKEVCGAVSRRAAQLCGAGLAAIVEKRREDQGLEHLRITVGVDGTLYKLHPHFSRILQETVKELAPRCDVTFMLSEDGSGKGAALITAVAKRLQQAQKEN
The experiment in a line: SAR analysis of small molecule inhibitors of hexokinase domain containing I (HKDC1). [Related pubchem assays (depositor defined):AID493160, AID493190]. The format is functional.

Assay [12] deals with T4, High affinity choline transporter 1 (Homo sapiens, UniProt Q9GZV3).
T4 sequence (Q9GZV3 whole entry): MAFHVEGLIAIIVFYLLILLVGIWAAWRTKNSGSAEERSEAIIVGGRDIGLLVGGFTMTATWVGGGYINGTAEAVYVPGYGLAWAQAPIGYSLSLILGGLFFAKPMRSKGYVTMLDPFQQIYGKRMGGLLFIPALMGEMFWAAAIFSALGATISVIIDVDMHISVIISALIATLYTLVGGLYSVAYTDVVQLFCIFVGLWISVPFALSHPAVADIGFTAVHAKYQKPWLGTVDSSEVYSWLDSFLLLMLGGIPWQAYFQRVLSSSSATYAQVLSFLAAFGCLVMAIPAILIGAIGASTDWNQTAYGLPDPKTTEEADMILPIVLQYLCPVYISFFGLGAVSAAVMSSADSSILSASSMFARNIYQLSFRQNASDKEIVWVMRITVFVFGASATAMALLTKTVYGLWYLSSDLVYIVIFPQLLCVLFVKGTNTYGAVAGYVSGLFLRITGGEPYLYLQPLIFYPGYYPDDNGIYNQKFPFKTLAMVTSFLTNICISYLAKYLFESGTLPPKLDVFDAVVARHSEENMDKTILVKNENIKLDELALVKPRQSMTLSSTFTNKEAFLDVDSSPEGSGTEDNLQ
The experiment in a line: CHT inhibitors, dose response, cell-based, 5-point CRC, membrane potential dye (AID 504840). The format is functional.

Another assay concerns MDCK. The assay can be described thus: antiviral activity against H1N1 influenza, dose response, cell-based, strain KY136 (AID 540257). It counts as functional. The note with it: Canis lupus familiaris.
A further assay concerns HT-1080. The experiment in a line: cytotoxicity in HT1080 fibrosarcoma cells, cell-based, fluorescence readout (AID 620). Conditions: Homo sapiens. It counts as functional.
A further assay deals with HEK293. The assay can be described thus: inhibitors of LMP1-driven NF-kB reporter, dose response, cell-based, HEK293, luciferase, cherry-pick (AID 588343). The note with it: Homo sapiens. It counts as functional.
The target of assay [13] is Luciferin 4-monooxygenase (Photinus pyralis, UniProt P08659). The experiment in a line: Counter Screen for Luciferase-based Assay Positives. [Related pubchem assays: 620, 618, 411 ].
Sequence of Luciferin 4-monooxygenase (P08659 whole entry): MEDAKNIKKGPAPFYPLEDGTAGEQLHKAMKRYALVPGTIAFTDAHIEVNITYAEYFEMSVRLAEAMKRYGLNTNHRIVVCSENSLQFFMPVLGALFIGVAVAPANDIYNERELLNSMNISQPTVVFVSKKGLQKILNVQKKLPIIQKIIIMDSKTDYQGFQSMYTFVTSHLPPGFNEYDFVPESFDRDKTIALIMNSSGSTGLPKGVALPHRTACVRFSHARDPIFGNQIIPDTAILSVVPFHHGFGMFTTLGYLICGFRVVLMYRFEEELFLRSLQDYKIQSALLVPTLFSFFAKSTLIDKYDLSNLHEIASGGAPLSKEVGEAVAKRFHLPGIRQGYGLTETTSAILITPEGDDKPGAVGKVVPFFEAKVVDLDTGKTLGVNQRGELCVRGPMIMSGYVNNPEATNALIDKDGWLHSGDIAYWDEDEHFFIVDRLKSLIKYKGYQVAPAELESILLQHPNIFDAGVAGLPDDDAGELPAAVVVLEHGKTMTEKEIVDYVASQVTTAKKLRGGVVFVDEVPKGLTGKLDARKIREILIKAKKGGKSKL

The source made the active and inactive calls. For most assays here, no stated cut-off is given here; in the data, actives have a measured EC50 and inactives only a lower limit.

Sequence of Beta-2 adrenergic receptor (P07550 whole entry): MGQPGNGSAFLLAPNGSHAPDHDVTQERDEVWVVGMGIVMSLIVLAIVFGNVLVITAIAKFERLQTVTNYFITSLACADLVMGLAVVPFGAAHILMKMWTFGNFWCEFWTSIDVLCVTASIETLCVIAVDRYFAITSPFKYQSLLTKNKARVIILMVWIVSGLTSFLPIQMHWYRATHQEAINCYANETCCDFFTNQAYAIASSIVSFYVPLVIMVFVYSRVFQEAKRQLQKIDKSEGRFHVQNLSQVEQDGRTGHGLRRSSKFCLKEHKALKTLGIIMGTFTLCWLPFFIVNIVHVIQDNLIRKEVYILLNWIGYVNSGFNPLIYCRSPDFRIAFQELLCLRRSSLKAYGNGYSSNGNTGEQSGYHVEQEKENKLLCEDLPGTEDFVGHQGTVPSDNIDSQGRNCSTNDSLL

A word on the EC50: it is the concentration giving half of the maximal effect. Consider `CCCCN(CCCC)c1nc(OC)nc(-n2nnc(C(C)=O)c2C)n1`, for which the EC50 in assay [1] was 12.1 µM (inactive).

In general, IC50 refers to the midpoint of a concentration-inhibition curve. As to `CCC1=Nc2cc(C(=O)NCc3ccco3)ccc2Sc2ccc(C)cc21`, the EC50 in assay [2] was 0.25 µM (active); in assay [3], < 0.1 µM (active); in assay [4], 0.243 µM (active); in the assay with BJ [5], 0.597 µM (active); in the assay on BJ [6], 13.1 µM (inconclusive); in the assay “cells” it was 0.919 µM (active). Besides, the EC50 with BJ [7] is < 0.104 µM (active); in [8], > 12 µM (inconclusive); in assay [9] it was 0.496 µM (active); in [10], 0.756 µM (active). Further, the IC50 on Cysteine protease ATG4B was > 80 µM (inactive); on Phospholipase A2 it was 51.7 µM (inactive).

In general, AC50 refers to the midpoint of the concentration-response curve, whichever way the signal moves. On to `N#Cc1ccc(CSc2nnc(NC(=O)c3ccc(O)nc3)s2)cc1`, for which the IC50 on Hexokinase-1 and on Hexokinase HKDC1 was > 80 µM (inactive) in each case. For the same compound, the AC50 in [11] is 0.679 µM (active).

For the compound `O=S(=O)(Cc1cc(Cl)nc(-c2cccnc2)n1)c1ccccc1`, the IC50 was 10.5 µM (active) in assay [12] and > 100 µM (active) with MDCK.

`Cc1nc(Nc2nc3ccccc3o2)nc2c1CCC2`: the EC50 in the assay on HT-1080 was > 50 µM (not active); in [13], 5.88 µM (active). Moreover, the AC50 in the assay with HEK293 is 2.54 µM (active).
